Entries after “also recorded” stand apart in the source; their conditions may differ. Positions of bridges follow the written chain, without caps; N, C: chain ends. Residues, ends and D or L forms follow the SMILES beside them. No end group written: not given here.
Test system: nasal cavity, the affected site
Assay: Effect on nose of cyclic peptides in which amino acid was substituted
Settings: for irritation upon nasal application: nasal application once/day

| Molecule | irritation upon nasal application (Formulation C = 30 μg/ml) | other results |
| --- | --- | --- |
| CC[C@H](C)[C@@H]1NC(=O)[C@H](CCCNC(=N)N)NC(=O)[C@H](CC(=O)O)NC(=O)[C@H](CC(C)C)NC(=O)[C@H](CCCCN)NC(=O)[C@H](CC(C)C)NC(=O)CNC(=O)[C@H](Cc2ccccc2)NC(=O)[C@@H](N)CSSC[C@@H](C(=O)O)NC(=O)CNC(=O)[C@H](CC(C)C)NC(=O)CNC(=O)[C@H](C)NC(=O)[C@H](CCSC)NC(=O)[C@H](CO)NC(=O)CNC1=O [SEQ ID NO: 16] (H-CFGLKLDRIGSMAGLGC-OH; disulfide 1-17; N-terminus and C-terminus assumed) | clear. There was no irritation upon nasal application. | – |
| CC[C@H](C)[C@@H]1NC(=O)[C@H](CCCNC(=N)N)NC(=O)[C@H](CC(=O)O)NC(=O)[C@H](CC(C)C)NC(=O)[C@H](CCCCN)NC(=O)[C@H](CC(C)C)NC(=O)CNC(=O)[C@H](Cc2ccccc2)NC(=O)[C@@H](N)CSSC[C@@H](C(=O)O)NC(=O)CNC(=O)[C@H](C(C)C)NC(=O)CNC(=O)[C@H](CO)NC(=O)[C@H](CCSC)NC(=O)[C@H](CO)NC(=O)CNC1=O [SEQ ID NO: 18] (H-CFGLKLDRIGSMSGVGC-OH; disulfide 1-17; N-terminus and C-terminus assumed) | There was no irritation upon nasal application. | – |
| CC[C@H](C)[C@@H]1NC(=O)CNC(=O)[C@H](CO)NC(=O)[C@H](CCSC)NC(=O)[C@H](CO)NC(=O)CNC(=O)[C@H]([C@@H](C)CC)NC(=O)[C@H](CCCNC(=N)N)NC(=O)[C@H](CC(=O)O)NC(=O)[C@H](CC(C)C)NC(=O)[C@H](CCCCN)NC(=O)[C@H](CC(C)C)NC(=O)CNC(=O)[C@H](Cc2ccccc2)NC(=O)[C@@H](N)CSSC[C@@H](C(=O)O)NC(=O)CNC1=O [SEQ ID NO: 19] (H-CFGLKLDRIGSMSGIGC-OH; disulfide 1-17; N-terminus and C-terminus assumed) | There was no irritation upon nasal application. | – |
| CC[C@H](C)[C@@H]1NC(=O)[C@H](CCCNC(=N)N)NC(=O)[C@H](CC(=O)O)NC(=O)[C@H](CC(C)C)NC(=O)[C@H](CCCCN)NC(=O)[C@H](CC(C)C)NC(=O)CNC(=O)[C@H](Cc2ccccc2)NC(=O)[C@@H](N)CSSC[C@@H](C(=O)O)NC(=O)CNC(=O)[C@H](CCSC)NC(=O)CNC(=O)[C@H](CO)NC(=O)[C@H](CCSC)NC(=O)[C@H](CO)NC(=O)CNC1=O [SEQ ID NO: 20] (H-CFGLKLDRIGSMSGMGC-OH; disulfide 1-17; N-terminus and C-terminus assumed) | There was no irritation upon nasal application. | – |
| CC[C@H](C)[C@@H]1NC(=O)[C@H](CCCNC(=N)N)NC(=O)[C@H](CC(=O)O)NC(=O)[C@H](CC(C)C)NC(=O)[C@H](CCCCN)NC(=O)[C@H](CC(C)C)NC(=O)CNC(=O)[C@H](Cc2ccccc2)NC(=O)[C@@H](N)CSSC[C@@H](C(=O)O)NC(=O)CNC(=O)[C@H](Cc2ccccc2)NC(=O)CNC(=O)[C@H](CO)NC(=O)[C@H](CCSC)NC(=O)[C@H](CO)NC(=O)CNC1=O [SEQ ID NO: 21] (H-CFGLKLDRIGSMSGFGC-OH; disulfide 1-17; N-terminus and C-terminus assumed) | upon blowing. There was no irritation upon nasal | – |
| CC[C@H](C)[C@@H]1NC(=O)[C@H](CCCNC(=N)N)NC(=O)[C@H](CC(=O)O)NC(=O)[C@H](CC(C)C)NC(=O)[C@H](CCCCN)NC(=O)[C@H](CC(C)C)NC(=O)[C@H](C)NC(=O)[C@H](Cc2ccccc2)NC(=O)[C@@H](N)CSSC[C@@H](C(=O)O)NC(=O)CNC(=O)[C@H](CC(C)C)NC(=O)CNC(=O)[C@H](CO)NC(=O)[C@H](CCSC)NC(=O)[C@H]([C@@H](C)O)NC(=O)CNC1=O [SEQ ID NO: 33] (H-CFALKLDRIGTMSGLGC-OH; disulfide 1-17; N-terminus and C-terminus assumed) | There was no irritation upon nasal application. | – |
| CC[C@H](C)[C@@H]1NC(=O)[C@H](CCCNC(=N)N)NC(=O)[C@H](CC(=O)O)NC(=O)[C@H](CC(C)C)NC(=O)[C@H](CCCCN)NC(=O)[C@H](CC(C)C)NC(=O)[C@H](C)NC(=O)[C@H](Cc2ccccc2)NC(=O)[C@@H](N)CSSC[C@@H](C(=O)O)NC(=O)CNC(=O)[C@H](CC(C)C)NC(=O)CNC(=O)[C@H]([C@@H](C)O)NC(=O)[C@H](CCSC)NC(=O)[C@H](CO)NC(=O)CNC1=O [SEQ ID NO: 34] (H-CFALKLDRIGSMTGLGC-OH; disulfide 1-17; N-terminus and C-terminus assumed) | – | irritation upon nasal application (Formulation B = 5 μg/ml): There was no irritation upon nasal application. |
| CC[C@H](C)[C@@H]1NC(=O)[C@H](CCCNC(=N)N)NC(=O)[C@H](CC(=O)O)NC(=O)[C@H](CC(C)C)NC(=O)[C@H](CCCCN)NC(=O)[C@H](CC(C)C)NC(=O)CNC(=O)[C@H](Cc2ccccc2)NC(=O)[C@@H](N)CSSC[C@@H](C(=O)O)NC(=O)CNC(=O)[C@H](CC(C)C)NC(=O)CNC(=O)[C@H]([C@@H](C)O)NC(=O)[C@H](CCSC)NC(=O)[C@H]([C@@H](C)O)NC(=O)CNC1=O [SEQ ID NO: 39] (H-CFGLKLDRIGTMTGLGC-OH; disulfide 1-17; N-terminus and C-terminus assumed) | upon blowing. There was no irritation upon nasal | – |
| CC[C@H](C)[C@@H]1NC(=O)CNC(=O)[C@H](CO)NC(=O)[C@H](CCSC)NC(=O)[C@H]([C@@H](C)O)NC(=O)CNC(=O)[C@H]([C@@H](C)CC)NC(=O)[C@H](CCCNC(=N)N)NC(=O)[C@H](CC(=O)O)NC(=O)[C@H](CC(C)C)NC(=O)[C@H](CCCCN)NC(=O)[C@H](CC(C)C)NC(=O)CNC(=O)[C@H](Cc2ccccc2)NC(=O)[C@@H](N)CSSC[C@@H](C(=O)O)NC(=O)CNC1=O [SEQ ID NO: 40] (H-CFGLKLDRIGTMSGIGC-OH; disulfide 1-17; N-terminus and C-terminus assumed) | There was no irritation upon nasal application. | – |
| CC[C@H](C)[C@@H]1NC(=O)CNC(=O)[C@H]([C@@H](C)O)NC(=O)[C@H](CCSC)NC(=O)[C@H](CO)NC(=O)CNC(=O)[C@H]([C@@H](C)CC)NC(=O)[C@H](CCCNC(=N)N)NC(=O)[C@H](CC(=O)O)NC(=O)[C@H](CC(C)C)NC(=O)[C@H](CCCCN)NC(=O)[C@H](CC(C)C)NC(=O)CNC(=O)[C@H](Cc2ccccc2)NC(=O)[C@@H](N)CSSC[C@@H](C(=O)O)NC(=O)CNC1=O [SEQ ID NO: 41] (H-CFGLKLDRIGSMTGIGC-OH; disulfide 1-17; N-terminus and C-terminus assumed) | There was no irritation upon nasal application. | – |
| CC[C@H](C)[C@@H]1NC(=O)CNC(=O)[C@H](CO)NC(=O)[C@H](CCSC)NC(=O)[C@H](CO)NC(=O)CNC(=O)[C@H]([C@@H](C)CC)NC(=O)[C@H](CCCNC(=N)N)NC(=O)[C@H](CC(=O)O)NC(=O)[C@H](CCSC)NC(=O)[C@H](CCCCN)NC(=O)[C@H](CC(C)C)NC(=O)[C@H](C)NC(=O)[C@H](Cc2ccccc2)NC(=O)[C@@H](N)CSSC[C@@H](C(=O)O)NC(=O)CNC1=O [SEQ ID NO: 50] (H-CFALKMDRIGSMSGIGC-OH; disulfide 1-17; N-terminus and C-terminus assumed) | stopped. There was no irritation upon nasal application. | – |
| CC[C@H](C)[C@@H]1NC(=O)CNC(=O)[C@H](CO)NC(=O)[C@H](CCSC)NC(=O)[C@H]([C@@H](C)O)NC(=O)CNC(=O)[C@H]([C@@H](C)CC)NC(=O)[C@H](CCCNC(=N)N)NC(=O)[C@H](CC(=O)O)NC(=O)[C@H](CCSC)NC(=O)[C@H](CCCCN)NC(=O)[C@H](CC(C)C)NC(=O)CNC(=O)[C@H](Cc2ccccc2)NC(=O)[C@@H](N)CSSC[C@@H](C(=O)O)NC(=O)CNC1=O [SEQ ID NO: 52] (H-CFGLKMDRIGTMSGIGC-OH; disulfide 1-17; N-terminus and C-terminus assumed) | clear. There was no irritation upon nasal application. | – |
| CC[C@H](C)[C@@H]1NC(=O)CNC(=O)[C@H]([C@@H](C)O)NC(=O)[C@H](CCSC)NC(=O)[C@H](CO)NC(=O)CNC(=O)[C@H]([C@@H](C)CC)NC(=O)[C@H](CCCNC(=N)N)NC(=O)[C@H](CC(=O)O)NC(=O)[C@H](CCSC)NC(=O)[C@H](CCCCN)NC(=O)[C@H](CC(C)C)NC(=O)CNC(=O)[C@H](Cc2ccccc2)NC(=O)[C@@H](N)CSSC[C@@H](C(=O)O)NC(=O)CNC1=O [SEQ ID NO: 53] (H-CFGLKMDRIGSMTGIGC-OH; disulfide 1-17; N-terminus and C-terminus assumed) | upon blowing. There was no irritation upon nasal | – |
| CC[C@H](C)[C@@H]1NC(=O)CNC(=O)[C@H](CO)NC(=O)[C@H](CCSC)NC(=O)[C@H]([C@@H](C)O)NC(=O)CNC(=O)[C@H]([C@@H](C)CC)NC(=O)[C@H](CCCNC(=N)N)NC(=O)[C@H](CC(=O)O)NC(=O)[C@H](CCSC)NC(=O)[C@H](CCCCN)NC(=O)[C@H](CC(C)C)NC(=O)[C@H](C)NC(=O)[C@H](Cc2ccccc2)NC(=O)[C@@H](N)CSSC[C@@H](C(=O)O)NC(=O)CNC1=O [SEQ ID NO: 58] (H-CFALKMDRIGTMSGIGC-OH; disulfide 1-17; N-terminus and C-terminus assumed) | – | irritation upon nasal application (Formulation B = 5 μg/ml): There was no irritation upon nasal application. |
| CC[C@H](C)[C@@H]1NC(=O)CNC(=O)[C@H]([C@@H](C)O)NC(=O)[C@H](CCSC)NC(=O)[C@H](CO)NC(=O)CNC(=O)[C@H]([C@@H](C)CC)NC(=O)[C@H](CCCNC(=N)N)NC(=O)[C@H](CC(=O)O)NC(=O)[C@H](CCSC)NC(=O)[C@H](CCCCN)NC(=O)[C@H](CC(C)C)NC(=O)[C@H](C)NC(=O)[C@H](Cc2ccccc2)NC(=O)[C@@H](N)CSSC[C@@H](C(=O)O)NC(=O)CNC1=O [SEQ ID NO: 59] (H-CFALKMDRIGSMTGIGC-OH; disulfide 1-17; N-terminus and C-terminus assumed) | – | irritation upon nasal application (Formulation D = 100 μg/ml): upon blowing. There was no irritation upon nasal |
| SEEQ ID NO: 3 (CFGLKLDRIGSMSGLGC; disulfide 1-17) | – | Post-treatment diagnostic skin impression (nasal application for comparison of right and left in one subject, Formulation A = 1 μg/ml, once/day): After 3 min, nasal discharge did not stop; also recorded: After 2 min, nose was not clear |

Source: patent US20240376153A1, “CNP CYCLIC PEPTIDE, AND MEDICINE, EXTERNAL PREPARATION AND COSMETIC EACH CONTAINING SAID CYCLIC PEPTIDE” (Igisu Co., Ltd., priority 2015, published 2024)
